Experimental data published in patent US10946027B2, “Tianeptine oxalate salts and polymorphs” (Tonix Pharma Holdings Limited, priority 2016, dated 2021).
Read-outs that look alike come from different tables or passages of the source.

For `CN1c2ccccc2C(NCCCCCCC(=O)O)c2ccc(Cl)cc2S1(=O)=O.O=C(O)C(=O)O` (centres unmarked) [Tianeptine mono-oxalate Form A, Tianeptine Mono-Oxalate Form A], which solid form stability (40-60° C., high humidity (75% RH)) is on record?
The solid form stability was “started to convert into tianeptine hemi-oxalate Form A”.

What about the solid form stability (milled without water) of the same compound?
Its solid form stability is “stable”.

What about the solid form stability (stored at 25° C. and 60-75% RH) of the same compound?
Its solid form stability is “stable”.

What about the solid form stability (stored at 40-60° C. without humidity (RH≈0%)) of the same compound?
The solid form stability was “stable”.

What about the solid form stability (water kneading) of the same compound?
The solid form stability was “started to convert into tianeptine hemi-oxalate Form A”.
